Entries after “also recorded” stand apart in the source; their conditions may differ.
Tests used:
[1] = system: A2780 human ovarian cancer cells; assay: Clonogenic assay, A2780; type: cell-based; settings: 1 hour drug treatment, 1 week colony formation, read-out: IC50 A780
Description: (§1) Human ovarian cancer cells, A2780, were obtained from Dr. Thomas Hamilton (Fox Chase Cancer Center, Philadelphia, Pa.). Cells were cultured on monolayer using RPMI 1640 supplemented with 10% fetal bovine serum, 2 mM glutamine, 0.25 units/mL insulin and penicillin/streptomycin in a 37 degrees C. incubator continuously gassed with 5% CO2. Cells were subcultured using 0.0625% trypsin in HBSS to maintain cells in exponential growth.
(§2) IC50 values were determined using a clonogenic assay. Briefly, 500 A2780 cells from a single cell suspension were plated onto 60mm Petri plates 24 hours before drug treatment to permit cell attachment. On the day of drug treatment, the medium was decanted and replaced with the drug and these treated cells were placed back into the 37 degrees C. incubator for 1 hour. Triplicate plates were set up for each drug concentration. After the 1 hour drug treatment, the drug containing medium was decanted and replaced with fresh medium. These plates were returned to the 37 degrees C. incubator for 1 week for colony formation. Colonies were fixed and stained using 2% crystal violet in absolute methanol. Colonies containing more than 50 cells were scored. The number of scored colonies from the triplicate plates was averaged and this number was divided by the number of cells plated to obtain a value for the fraction of cells forming colonies. These values for fraction of cells forming colonies were then corrected for plating efficiency by dividing it by the number of cells forming colonies in plates that were not treated with drug.

[2] = system: A2780/C30 cisplatin-resistant ovarian cell line; assay: Clonogenic assay, cisplatin/carboplatin-resistant C30; type: cell-based, human; settings: 1 hour drug treatment, 1 week colony formation
Description: as §1, with “A cisplatin-resistant Ovarian cell line (C30) (Hamaguchi, et al., 1993),” for “Human ovarian cancer cells, A2780, were”, “Pa.), was treated with the monomeric platinum complexes of the present invention (shown in FIG. 2). This cell line is also cross resistant to carboplatin.” for “Pa.).”, “0.025%” for “0.0625%”
as §2, with “500 C30” for “500 A2780”, “onto 60 mm” for “onto 60mm”, “the one” for “the 1”, “dividing them” for “dividing it”

[3] = system: CHO cell line; assay: Cytotoxic assay, CHO; type: cell-based
Excerpt: In some embodiments, the complexes of the present invention are useful for treating various cancers. […] The complexes of the present invention are particularly desirable because they may have reduced toxicity in vivo.

[4] = pKa from 31P chemical shift as a function of pH; type: physicochemical; settings: for pKa1 / pKa2: calculated from phosphorus-31 chemical shifts
[5] = system: A2780 cells; assay: Cellular accumulation of platinum by atomic absorption, A2780; type: cell-based, human; settings: for Cellular accumulation of platinum: 1 hr exposure
Description: (§3) Platinum content was quantitatively estimated on a Graphite Furnace Atomic Absorption Spectrometer (Perkin Elmer AA-600) from calibration curves established by using cisplatin or pyrodach-2 in water. Cells (5×10^6) were seeded in T75 cm^2 flasks. After 24 h, these cells were then treated with the different concentrations (0, 10, 20, 30 and 50 μM) of cisplatin and pyrodach-2. After 1 hr exposure with the platinum complexes, the drug-containing medium was removed and the cells were washed with ice-cold phosphate-buffered saline (PBS). The cells were then trypsinized and centrifuged into a pellet. Cell pellets were digested in concentrated HNO3 and H2O2 prior to analysis, according to the method of McGahan. Data reported in Table 4 were collected from three independent experiments each was carried out in duplicate. For the cisplatin accumulation, data were obtained from triplicate runs from a single sample at a given concentration.

[6] = system: A2780/C30 cells; assay: Cellular accumulation of platinum by atomic absorption, A2780/C30; type: cell-based, human; settings: 1 hr exposure
Description: as §3

[7] = system: guanine base; assay: Guanine base binding by proton NMR; settings: cisplatin after 48 hours, am-2 96 hours, dach-2 106 hours
Description: FIG. 12 is a comparison of guanine base binding (the predominant DNA binding site of cisplatin) among cisplatin (bottom), am-2 (middle), and dach-2 (top) by proton NMR spectroscopy. […] The bottom spectrum was recorded after 48 hours. The middle and top spectra were recorded after 96 and 106 hours, respectively.
(§4) Proton NMR spectroscopic experiments were conducted on a Bruker 500 MHz NMR instrument in 99% (atom) D2O with a water suppression pulse sequence. Samples contained cisplatin (2.0 mM) or pyrodach-2 (2.0 mM) and nucleotides (5′-dGMP, 5′-dAMP, dGpG (5.0 mM)), and, single- and double stranded DNA (calf thymus, 5.0 mM) at pH 7.0 maintained by phosphate and carbonate buffers (10-20 mM). Reactions of cisplatin (0.25 mM) and pyrodach-2 (0.25 mM) with a synthetic 25-mer: 5′-[…]-3′ (SEQ ID NO: 1) (0.25 mM) were also performed under identical conditions. Reactions were carried out up to 7 days, and ^1H and ^31P NMR spectra were recorded at regular time intervals. Usually, a pulse width of 5 μs with a 1.0 s repetition delay was used for the measurements. Typically, a sweepwidth of 10,000 Hz and 32 K data points were selected to collect the Free Induction Decays. A line broadening factor of 1 Hz was for applied Fourier transformation. The chemical shifts, with reference to H—O-D peak, are at 4.67 ppm.

[8] = system: synthetic 25-mer oligonucleotide (SEQ ID NO:1); assay: Platinum-DNA binding by NMR, 25-mer oligonucleotide; settings: 1H NMR, identical conditions for both complexes
Description: (§5) In the associated experiment, dach-2 was allowed to react with double-stranded calf-thymus DNA, a synthetic oligonucleotide (5′-[…]-3′; SEQ ID NO:1), a dinucleotide (dGpG), and nucleotide monophosphates (5′-dGMP and 5′-dAMP) at concentrations as much as 250-times higher than those of cellular doses. The extent of DNA binding was monitored by ^1H NMR spectroscopy. In parallel, similar reactions with cisplatin were conducted under identical conditions.
as §4, with “The chemical shifts, with reference to H—O-D peak, are at 4.67 ppm.” left out

[9] = system: calf-thymus DNA, oligonucleotide, dGpG, 5'-dGMP and 5'-dAMP; assay: Platinum binding to DNA and nucleotides by NMR; settings: 1H NMR, up to seven days
Description: as §5
as §4, with “The chemical shifts, with reference to H—O-D peak, are at 4.67 ppm.” left out

[10] = system: fas; assay: Apoptotic gene array, real-time PCR: fas; type: cell-based; settings: preliminary
Description: (§6) Preliminary gene expression experiments involving complexes of the present invention as compared to cisplatin (data not shown) were carried out with an apoptotic array containing 84 genes that includes the BCL2 superfamily, both pro- and anti-apoptotic, caspases, the BIR-family, TNF receptor […] factors, p53 and its congeners, and fas associated members by real-time PCR. A closer look at the two sets of gene expressions clearly indicates a number of differences in the expression patterns. […] Specifically, fas was over-expressed by 6-fold compared to the control, and TNFRS genes such as TNFRSF-10B was overexpressed by 2-3 folds over controls. These latter receptor factors belong to the fas superfamily.

[11] = system: BAK1; assay: Apoptotic gene array, real-time PCR: BAK1; type: cell-based; settings: preliminary
Description: as §6

[12] = system: BAX; assay: Apoptotic gene array, real-time PCR: BAX; type: cell-based; settings: preliminary
Description: as §6

[13] = system: UMSCC10b (Cisplatin-sensitive) cells; settings: from Zheng et al., Clinical Cancer Research 1997; cited from earlier work
[14] = system: A2780/C30 cells; assay: Cellular accumulation of platinum by atomic absorption, A2780/C30; type: cell-based, human; settings: at its IC50 value

Structure (SMILES) | IC50 [1] [µM] | IC50 [2] [µM] | IC50 [3] [µM] | pKa1 [4] | pKa2 [4] | other results
NC1CCCCC1N.O=P([O-])(O)OP(=O)([O-])O.[OH-].[OH-].[Pt+4] [dach-4, (Trans-1,2-cyclohexanediamine)-trans-dihyroxo(dihydrogenpyrophosphato)platinum(IV)] | 180 ± 15 | 155 ± 17 | 116 ± 17 | – | – | –
NCCN.O=P([O-])(O)OP(=O)([O-])O.[Pt+2] [en-2, 1,2-Ethanediamine(dihydrogenpyrophosphato)platinum(II)] | – | – | – | 2.2 ± 0.1 | 4.4 ± 0.1 | –
N.N.O=C([O-])C1(C(=O)[O-])CCC1.[Pt+2] [Carboplatin, diammine-1,1-dicarcarboxylatocyclobutane-platinum(II), reference compound] | 90 ± 13 | > 200 | > 200 | – | – | –
N.N.[Cl][Pt][Cl] [Cisplatin, cisdiamminedichloroplatinum(II), reference compound] | 7.5 ± 1.5 | 110 ± 11.3 | 29 ± 3 | – | – | Cellular accumulation of platinum ([5]; A2780, 10 μM): 3.00 ± 0.05 ng/10^6 cells; Cellular accumulation of platinum ([5]; A2780, 20 μM): 5.00 ± 0.06 ng/10^6 cells; Cellular accumulation of platinum ([5]; A2780, 30 μM): 6.00 ± 0.10 ng/10^6 cells; Cellular accumulation of platinum ([5]; A2780, 50 μM): 20.00 ± 1.00 ng/10^6 cells; accumulation in A2780 cells ([5]; at 10 μM concentration): 3.0 ng Pt/10^6 cells; Cellular accumulation of platinum ([6]; A2780/C30, 10 μM): 1.00 ± 0.10 ng/10^6 cells; Cellular accumulation of platinum ([6]; A2780/C30, 20 μM): 2.00 ± 0.40 ng/10^6 cells; Cellular accumulation of platinum ([6]; A2780/C30, 30 μM): 2.00 ± 0.50 ng/10^6 cells; Cellular accumulation of platinum ([6]; A2780/C30, 50 μM): 5.00 ± 1.00 ng/10^6 cells; guanine base binding (H8 signal) [7]: additional signal at 8.43 ppm for H8 proton due to guanine binding to cisplatin; DNA binding, 25-mer oligonucleotide [8]: readily forms covalent adducts with DNA; adduct formation with nucleotides [9]: readily formed adducts with all the nucleotides; fas over-expression compared to the control [10]: no significant over-expression; also recorded: marginal changes; BAK1 overexpression [11]: did not make significant changes; BAX overexpression [12]: did not make significant changes; IC50 [13]: 17 µM; platinum accumulation in the resistant cell lines [14]: > 5 ng Pt/10^6 cells
N.N.O=P1(O)OP(=O)(O)[O][Pt]([OH])([OH])[O]1 [am-4, Cis-diammine-trans-dihydroxo(dihydrogen pyrophosphato)platinum (IV)] | 175 ± 22 | > 200 | > 200 | 2.0 ± 0.1 | 4.7 ± 0.1 | –
NCCN.O=P([O-])(O)OP(=O)([O-])O.[OH-].[OH-].[Pt+4] [en-4, 1,2-Ethanediamine-trans-dihydroxo(dihydrogenpyrophosphato)platinum(IV)] | 170 ± 33 | > 200 | > 200 | <2 | 4.3 ± 0.1 | –
N.N.O=P1(O)[O][Pt][O]P(=O)(O)O1 [am-2, Diammine(dihydrogen pyrophosphato)platinum(II)] | 100 ± 11 | > 200 | 120 ± 30 | 2.9 ± 0.3 | 4.7 ± 0.2 | pKa1 (value in parentheses) ([4]; second value printed in parentheses under pKa1, not explained): (3.8 ± 0.1); guanine base binding (H8 signal) [7]: only indicates the unbound guanine H8 signal but not platinum bound signal
